Data on 62 compounds can be found in patent US7329681B2, “Inhibitors of IMPDH enzyme” (Vertex Pharmaceuticals Incorporated, priority 1996, dated 2008).

The assay has as its target IMPDH human type II (Homo sapiens, UniProt P12268). Nature of the assay: IMPDH activity inhibition assay (spectrophotometric, NADH formation at 340 nm). To be noted: IMPDH human type II, 15 to 50 nM enzyme, 37° C., tight-binding fit (Henderson); read-out: Ki. In kind it is biochemical. Here is the method:
We have measured the inhibition constants of each compound against IMPDH using an adaptation of the method first reported by […]. Moyed, and […]. Biol. Chem., 226, p. 339 (1957)]. We measured the inhibition constants of the compounds listed in Table III utilizing the following protocol: IMP dehydrogenase activity was assayed following an adaptation of the method first reported by […]. Moyed, H. S. and […]. Biol. Chem. 226, 339]. Enzyme activity was measured spectrophotometrically, by monitoring the increase in absorbance at 340 nm due to the formation of NADH (ε340 is 6220 M^-1 cm^-1). The reaction mixture contained 0.1 M Tris pH 8.0, 0.1 M KCl, 3 mM EDTA, 2 mM DTT, […] and enzyme (IMPDH human type II) at a concentration of 15 to 50 nM. This solution is incubated at 37° C. for 10 minutes. The reaction is started by adding NAD to a final concentration of 0.1 M and the initial rate is measured by following the linear increase in absorbance at 340 nm for 10 minutes. For reading in a standard spectrophotometer (path length 1 cm) the final volume in the cuvette is 1.0 ml. The assay has also been adapted to a 96 well microtiter plate format; in this case the concentrations of all the reagents remain the same and the final volume is decreased to 200 μl. For the analysis of inhibitors, the compound in question is dissolved in DMSO to a final concentration of 20 mM and added to the initial assay mixture for preincubation with the enzyme at a final volume of 2-5% (v/v). The reaction is started by the addition of NAD, and the initial rates measured as above. […] The designation “ND” is used where a given compound was not tested.
The term Ki denotes the equilibrium dissociation constant of an inhibitor or competing ligand from its target. On to `COc1cc(NC(=O)Nc2cccc(CNC(=O)OC3CCCCO3)c2)ccc1-c1cnco1` (racemic) [Compound 142], for which the inhibition constant Ki fell in the range of 0.01 to 50 nM.

With `O=C(NCc1ccccc1)Nc1ccc(-c2cnco2)cc1` [Compound 1], the Ki was 1000 to 10000 nM.

Regarding `O=C(Nc1ccc(-c2cnco2)cc1)Nc1ccsc1` [Compound 3], the Ki fell in the range of 51 to 1000 nM.

Turning to `O=C(Nc1ccc(-c2cnco2)cc1)Nc1ccc(F)c(F)c1` [Compound 4], the Ki was > 10000 nM.

`CSc1cccc(NC(=O)Nc2ccc(-c3cnco3)cc2)c1` [Compound 6]: the Ki fell in the range of 1000 to 10000 nM.

As to `O=C(Nc1ccc(-c2cnco2)cc1)Nc1cccc(Br)c1` [Compound 7], the inhibition constant Ki lay in the range of 51 to 1000 nM.

For `N#Cc1cccc(NC(=O)Nc2ccc(-c3cnco3)cc2)c1` [Compound 8], the Ki was in the range of 1000 to 10000 nM.

For the compound `O=C(Nc1ccc(-c2cnco2)cc1)Nc1ccc(Cl)c(C(F)(F)F)c1` [Compound 9], the inhibition constant (Ki) was in the range of 1000 to 10000 nM.

With `Cc1c(Cl)cccc1NC(=O)Nc1ccc(-c2cnco2)cc1` [Compound 10], the inhibitory constant (Ki) lay within 1000 to 10000 nM.

In the case of `COc1ccc(C)cc1NC(=O)Nc1ccc(-c2cnco2)cc1` [Compound 11], the inhibition constant Ki was in the range of 1000 to 10000 nM.

Take `COc1ccccc1NC(=O)Nc1ccc(-c2cnco2)cc1` [Compound 12]: the Ki lay in the range of 1000 to 10000 nM.

Take `COc1cccc(NC(=O)Nc2ccc(-c3cnco3)cc2)c1` [Compound 13]: the Ki lay in the range of 1000 to 10000 nM.

Take `COc1ccc(OC)c(NC(=O)Nc2ccc(-c3cnco3)cc2)c1` [Compound 14]: the Ki was 1000 to 10000 nM.

As to `O=C(Nc1ccc(-c2cnco2)cc1)Nc1cccc([N+](=O)[O-])c1` [Compound 15], the Ki is 1000 to 10000 nM.

`O=C(Nc1ccc(-c2cnco2)cc1)Nc1ccc([N+](=O)[O-])cc1` [Compound 16]: the Ki is 1000 to 10000 nM.

Turning to `Cc1cccc(NC(=O)Nc2ccc(-c3cnco3)cc2)c1` [Compound 17], the inhibition constant (Ki) was in the range of 51 to 1000 nM.

On to `O=C(Nc1ccc(-c2cnco2)cc1)Nc1cccc(C(F)(F)F)c1` [Compound 18], for which the inhibition constant Ki was 1000 to 10000 nM.

Consider `O=C(Nc1ccc(-c2cnco2)cc1)Nc1ccccc1C(F)(F)F` [Compound 19], for which the Ki is 1000 to 10000 nM.

On to `O=C(Nc1ccc(-c2cnco2)cc1)Nc1cccc(F)c1` [Compound 20], for which the Ki was in the range of 1000 to 10000 nM.

In the case of `O=C(Nc1ccc(Oc2ccccc2)cc1)Nc1ccc(-c2cnco2)cc1` [Compound 21], the Ki fell in the range of 1000 to 10000 nM.

Turning to `O=C(Nc1ccc(-c2cnco2)cc1)Nc1cccc(Cl)c1` [Compound 22], the inhibition constant Ki fell in the range of 1000 to 10000 nM.

As for `O=C(Nc1ccc(-c2cnco2)cc1)Nc1ccc(F)c(Cl)c1` [Compound 23], the Ki was 1000 to 10000 nM.

As to `Nc1cccc(NC(=O)Nc2ccc(-c3cnco3)cc2)c1` [Compound 24], the inhibition constant Ki was in the range of 51 to 1000 nM.

As for `O=C(Nc1ccc(-c2cnco2)cc1)Nc1cccc(CO)c1` [Compound 25], the Ki lay in the range of 1000 to 10000 nM.

In the case of `C#Cc1cccc(NC(=O)Nc2ccc(-c3cnco3)cc2)c1` [Compound 26], the inhibition constant Ki is 1000 to 10000 nM.

Consider `O=C(Nc1ccc(-c2cnco2)cc1)Nc1cccc(O)c1` [Compound 27], for which the Ki lay within 1000 to 10000 nM.

Turning to `COc1ccc(NC(=O)Nc2cccc(C)c2)cc1OC` [Compound 28], the Ki fell in the range of 1000 to 10000 nM.

`O=C(Nc1ccc(-c2cnco2)cc1)Nc1cccnc1` [Compound 29]: the inhibitory constant (Ki) was > 10000 nM.

With `O=C(Nc1ccncc1)Nc1ccc(-c2cnco2)cc1` [Compound 30], the Ki fell in the range of 1000 to 10000 nM.

In the case of `Cc1cnc(NC(=O)Nc2ccc(-c3cnco3)cc2)s1` [Compound 31], the inhibitory constant (Ki) was > 10000 nM.

Regarding `Cc1cccc(NC(=O)Nc2cccc([N+](=O)[O-])c2)c1` [Compound 32], the inhibition constant Ki is > 10000 nM.

As to `Cc1cccc(NC(=O)Nc2ccc(C#N)cc2)c1` [Compound 33], the inhibitory constant (Ki) is > 10000 nM.

In the case of `COc1ccc(NC(=O)Nc2cccc(Br)c2)cc1OC` [Compound 34], the Ki is 1000 to 10000 nM.

Turning to `COc1ccc(Cl)cc1NC(=O)Nc1ccc(OC)c(OC)c1` [Compound 35], the Ki was 1000 to 10000 nM.

Consider `COc1ccc(NC(=O)Nc2cccc(F)c2)cc1OC` [Compound 36], for which the Ki fell in the range of 1000 to 10000 nM.

With `CCc1cccc(NC(=O)Nc2ccc(OC)c(OC)c2)c1` [Compound 37], the inhibition constant (Ki) was 1000 to 10000 nM.

`COc1ccc(NC(=O)Nc2cccc(SC)c2)cc1OC` [Compound 38]: the Ki is > 10000 nM.

As to `O=C(Nc1ccc(-c2cnco2)cc1)Nc1ccc2c(c1)OCCO2` [Compound 39], the Ki is > 10000 nM.

As for `Cc1cc(NC(=O)Nc2ccc(-c3cnco3)cc2)ccc1[N+](=O)[O-]` [Compound 40], the Ki was 1000 to 10000 nM.

`O=C(Nc1ccc(-c2cnco2)cc1)Nc1ccc([N+](=O)[O-])c(C(F)(F)F)c1` [Compound 41]: the Ki lay within 1000 to 10000 nM.

`O=C(Nc1ccccc1)Nc1ccc(-c2cnco2)c(Cl)c1` [Compound 42]: the Ki lay within 51 to 1000 nM.

Regarding `Cc1cccc(NC(=O)Nc2ccc(-c3cnco3)c(Cl)c2)c1` [Compound 43], the inhibition constant Ki is 51 to 1000 nM.

`O=C(Nc1ccccc1)Nc1ccc(-c2cnco2)c(F)c1` [Compound 45]: the inhibitory constant (Ki) lay within 1000 to 10000 nM.

For `Cc1cccc(NC(=O)Nc2ccc(-c3cnco3)c(F)c2)c1` [Compound 46], the Ki was 51 to 1000 nM.

On to `COC(=O)Cc1cccc(NC(=O)Nc2ccc(-c3cnco3)cc2)c1` [Compound 47], for which the Ki was in the range of 51 to 1000 nM.

`CN(C)c1cccc(NC(=O)Nc2ccc(-c3cnco3)cc2)c1` [Compound 49]: the Ki fell in the range of 1000 to 10000 nM.

`CC1(c2cccc(NC(=O)Nc3ccc(-c4cnco4)cc3)c2)OCCO1` [Compound 50]: the inhibitory constant (Ki) is > 10000 nM.

Turning to `NC(=O)c1cccc(NC(=O)Nc2ccc(-c3cnco3)cc2)c1` [Compound 51], the inhibitory constant (Ki) was > 10000 nM.

`COc1ccc(NC(=O)Nc2cccc([N+](=O)[O-])c2)cc1Cl` [Compound 52]: the Ki fell in the range of 1000 to 10000 nM.

With `O=C(Nc1ccc(-c2cnco2)cc1)Nc1cccc(-c2ccoc2)c1` [Compound 53], the Ki is 1000 to 10000 nM.

Turning to `O=C(O)Cc1cccc(NC(=O)Nc2ccc(-c3cnco3)cc2)c1` [Compound 54], the Ki lay in the range of 1000 to 10000 nM.

For the compound `COc1cc(NC(=O)Nc2cccc(C)c2)ccc1-c1cnco1` [Compound 55], the inhibitory constant (Ki) lay in the range of 0.01 to 50 nM.

On to `COC(=O)Cc1cccc(NC(=O)Nc2ccc(-c3cnco3)c(Cl)c2)c1` [Compound 57], for which the inhibitory constant (Ki) is 51 to 1000 nM.

Consider `Cc1cc(N)cc(NC(=O)Nc2ccc(-c3cnco3)cc2)c1` [Compound 58], for which the Ki was in the range of 1000 to 10000 nM.

In the case of `COc1cc(NC(=O)Nc2cccc(N)c2)ccc1-c1cnco1` [Compound 59], the inhibition constant Ki lay in the range of 0.01 to 50 nM.

With `Cc1cccc(NC(=O)Nc2ccc(-c3cnco3)c(Br)c2)c1` [Compound 60], the Ki lay within 51 to 1000 nM.

For the compound `O=C(Nc1ccc(-c2cnco2)c(Cl)c1)Nc1ccc(-c2cnco2)c(Cl)c1` [Compound 61], the inhibition constant (Ki) is > 10000 nM.

For `Cc1cc(NC(=O)Nc2ccc(-c3cnco3)c(Cl)c2)ccn1` [Compound 62], the inhibition constant (Ki) is 1000 to 10000 nM.

For `O=C(O)Cc1cccc(NC(=O)Nc2ccc(-c3cnco3)c(Cl)c2)c1` [Compound 63], the inhibition constant Ki lay within 1000 to 10000 nM.

Take `O=C(Nc1cccc([N+](=O)[O-])c1)Nc1ccc(-c2cnco2)c(Br)c1` [Compound 64]: the Ki lay in the range of 51 to 1000 nM.

Regarding `Nc1cccc(NC(=O)Nc2ccc(-c3cnco3)c(Br)c2)c1` [Compound 65], the inhibition constant Ki was 51 to 1000 nM.

For `Cc1ncc(-c2cccc(NC(=O)Nc3ccc(-c4cnco4)cc3)c2)cn1` [Compound 66], the inhibition constant (Ki) lay in the range of 1000 to 10000 nM.
